{
  "source": "patent US10323001B2",
  "about": "“Compositions for modulating a kinase cascade and methods of use thereof” (Athenex, Inc., priority 2006, dated 2019)",
  "type_in_all_cases": "physicochemical",
  "key": {"[1]": {"assay": "Solubility in DI water and pH 2.0 phosphate buffer", "description": "The table below summarizes additional characterization data for the fumaric and maleate KX2-391.MSA salts and compares it to free base, bis-HCl, and MSA salts described above. The results in the table below were obtained using the procedures described above in Examples 5 (XRPD), 6 (DSC), 7 (TGA), and 8 (moisture-sorption).\nSolubility experiments were also performed using pH 2.0 phosphate buffer and DI water pH 6.9 and KX2-391.MSA, Form A. Each vial was filled with approximately 50 mg of KX2-391.MSA, Form A and 100 μL aliquots of the corresponding solvent was added until complete dissolution was observed, followed by stirring at room temperature for one and five days. The solids obtained were isolated by filtration, dried under vacuum at room temperature and analyzed by HPLC. The initial HPLC purity of KX2-391.MSA, Form A was 99.4 (% area). The solubility by HPLC of KX2-391.MSA, Form A in phosphate buffer/RT was >500 mg/mL and HPLC purity was measured to be 99.4. The solubility by HPLC of KX2-391.MSA, Form A in DI H2O/RT was >500 mg/mL and HPLC purity was measured to be 99.4."}, "[2]": {"assay": "Slurry studies, 2 weeks at ambient conditions", "details": "for Form After 2 Weeks (XRPD): initial Form A", "text": "After 2 weeks slurry at ambient conditions, the solids were isolated and analyzed by XRPD and HPLC. No additional forms were observed by XRPD."}, "[3]": {"assay": "5 mg/mL DI water dissolution experiment", "set-up": "key to dissolution state: P—Particulates partially dissolved; D—Particulates fully dissolved", "details": "about 5 mg in 1 mL DI water, magnetic stirring", "description": "Dissolution experiments were performed on KX2-391 salts to provide a better understanding of the salts interaction in water. This was accomplished using a 5 mg/mL DI water dissolution experiment where 5 mg of each salt was weighed into a vial and 1 mL of DI wather was added. The solution was monitored visually with magnetic stirring over a 20 minute time period to observe the time of dissolution."}, "[4]": {"details": "slurry in Dioxane:water (~0.9:0.1)"}},
  "note": "Structures can show the parent of a compound that is named as a salt. Where two headings read alike, the source gives them in different places.",
  "data": [
    {"smiles": "O=C(Cc1ccc(-c2ccc(OCCN3CCOCC3)cc2)cn1)NCc1ccccc1", "note": "[KX2-391.MSA, 2-(5-(4-(2-morpholinoethoxy)phenyl)pyridine-2-yl)-N-benzylacetamide mesylate]", "values": [
      {"measurement": "pH of solubility sample", "setting": "[1]", "value": 4.6},
      {"measurement": "HPLC purity after solubility experiment", "setting": "[1]; pH 2", "value": 99.4, "unit": "% area"},
      {"measurement": "Solubility mg/mL", "setting": "[1]; pH 2", "value": "pH 2: >500 mg/mL"},
      {"measurement": "pH of solubility sample", "setting": "[1]; pH 2", "value": "(4.3)"},
      {"measurement": "solubility", "setting": "[1]; pH 2, aqueous buffer, thermodynamic from solid", "value": "> 500", "unit": "mg/mL"},
      {"measurement": "HPLC purity after solubility experiment", "setting": "[1]; pH 6.9", "value": 99.4, "unit": "% area"},
      {"measurement": "solubility", "setting": "[1]; pH 6.9", "value": "> 500", "unit": "mg/mL"},
      {"measurement": "solubility", "setting": "[1]; pH 6.9, water, thermodynamic from solid", "value": "> 500", "unit": "mg/mL"},
      {"measurement": "HPLC Purity (AUC) after 2 weeks slurry", "setting": "[2]; slurry in 1-butanol", "value": ">99", "unit": "%"},
      {"measurement": "Form After 2 Weeks (XRPD)", "setting": "[2]; slurry in 1-butanol", "value": "Form A"},
      {"measurement": "HPLC Purity (AUC) after 2 weeks slurry", "setting": "[2]; [4]", "value": ">99", "unit": "%"},
      {"measurement": "Form After 2 Weeks (XRPD)", "setting": "[2]; [4]", "value": "Form A"},
      {"measurement": "HPLC Purity (AUC) after 2 weeks slurry", "setting": "[2]; slurry in IPA", "value": ">99", "unit": "%"},
      {"measurement": "Form After 2 Weeks (XRPD)", "setting": "[2]; slurry in IPA", "value": "Form A"},
      {"measurement": "HPLC Purity (AUC) after 2 weeks slurry", "setting": "[2]; slurry in MeCN", "value": ">99", "unit": "%"},
      {"measurement": "Form After 2 Weeks (XRPD)", "setting": "[2]; slurry in MeCN", "value": "Form A"},
      {"measurement": "HPLC Purity (AUC) after 2 weeks slurry", "setting": "[2]; slurry in THF:water (~0.9:0.1)", "value": ">99", "unit": "%"},
      {"measurement": "Form After 2 Weeks (XRPD)", "setting": "[2]; slurry in THF:water (~0.9:0.1)", "value": "Form A"},
      {"measurement": "dissolution state", "setting": "[3]; 0 s", "value": "P"},
      {"measurement": "dissolution state", "setting": "[3]; 30 s", "value": "P"},
      {"measurement": "dissolution state", "setting": "[3]; 1 min", "value": "D"}
    ]}
  ]
}
